pIC50: −log10 of the molar value.
Test system: PDC 899932-113-R3-J6 complex spheroid viability
Assay: Anticancer human tumor 899932-113-R3-J6-PDC patient-derived melanoma cell line growth inhibition [RAS]
Settings: for pIC50: curve of first compound; for viability, T/C: stronger effect = lower value; active = viability on the fitted dose curve at most 10% of control; inactive = the rest
Outline: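 Agents were tested in combination matrices in half-log decrements from a top concentration at or near clinical Cmax (10 microM if undetermined). Targets were multi-cell spheroids of tumour lines plus HUVEC and MSC stromal cells.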
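Throughout, for viability, T/C: spheroids exposed to agents for seven days before readout; 100% = DMSO vehicle control wells.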

C=CC(=O)N1CCN(c2nc(OCC3CCCN3C)nc3c(F)c(-c4nc(N)cc(C)c4C(F)(F)F)c(Cl)cc23)C(C)C1 (centres undefined) + C#Cc1c(F)ccc2cc(O)cc(-c3ncc4c(N5CC6CCC(C5)N6)nc(OCC56CCCN5CC(F)C6)nc4c3F)c12
< 6.00: pIC50 (second compound 0.0316 µM) | pIC50 (second compound 0.1 µM) | pIC50 (second compound 0.316 µM) | pIC50 (second compound 1 µM) | pIC50 (second compound 3.16 µM) | pIC50 (second compound 10 µM)
inactive: viability, T/C (second compound 0.0316 µM, first compound 0.00316 µM) 116% | viability, T/C (second compound 0.0316 µM, first compound 0.01 µM) 107% | viability, T/C (second compound 0.0316 µM, first compound 0.0316 µM) 101% | viability, T/C (second compound 0.0316 µM, first compound 0.1 µM) 108% | viability, T/C (second compound 0.0316 µM, first compound 0.316 µM) 110% | viability, T/C (second compound 0.0316 µM, first compound 1 µM) 104% | viability, T/C (second compound 0.1 µM, first compound 0.00316 µM) 112% | viability, T/C (second compound 0.1 µM, first compound 0.01 µM) 106% | viability, T/C (second compound 0.1 µM, first compound 0.0316 µM) 105% | viability, T/C (second compound 0.1 µM, first compound 0.1 µM) 117% | viability, T/C (second compound 0.1 µM, first compound 0.316 µM) 111% | viability, T/C (second compound 0.1 µM, first compound 1 µM) 106% | viability, T/C (second compound 0.316 µM, first compound 0.00316 µM) 112% | viability, T/C (second compound 0.316 µM, first compound 0.01 µM) 115% | viability, T/C (second compound 0.316 µM, first compound 0.0316 µM) 107% | viability, T/C (second compound 0.316 µM, first compound 0.1 µM) 108% | viability, T/C (second compound 0.316 µM, first compound 0.316 µM) 117% | viability, T/C (second compound 0.316 µM, first compound 1 µM) 112% | viability, T/C (second compound 1 µM, first compound 0.00316 µM) 120% | viability, T/C (second compound 1 µM, first compound 0.01 µM) 108% | viability, T/C (second compound 1 µM, first compound 0.0316 µM) 115% | viability, T/C (second compound 1 µM, first compound 0.1 µM) 112% | viability, T/C (second compound 1 µM, first compound 0.316 µM) 125% | viability, T/C (second compound 1 µM, first compound 1 µM) 102% | viability, T/C (second compound 3.16 µM, first compound 0.00316 µM) 129% | viability, T/C (second compound 3.16 µM, first compound 0.01 µM) 113% | viability, T/C (second compound 3.16 µM, first compound 0.0316 µM) 120% | viability, T/C (second compound 3.16 µM, first compound 0.1 µM) 133% | viability, T/C (second compound 3.16 µM, first compound 0.316 µM) 124% | viability, T/C (second compound 3.16 µM, first compound 1 µM) 110% | viability, T/C (second compound 10 µM, first compound 0.00316 µM) 118% | viability, T/C (second compound 10 µM, first compound 0.01 µM) 115% | viability, T/C (second compound 10 µM, first compound 0.0316 µM) 122% | viability, T/C (second compound 10 µM, first compound 0.1 µM) 125% | viability, T/C (second compound 10 µM, first compound 0.316 µM) 110% | viability, T/C (second compound 10 µM, first compound 1 µM) 102%

CCc1c2c(nc3ccc(O)cc13)-c1cc3c(c(=O)n1C2)COC(=O)[C@]3(O)CC + C#Cc1c(F)ccc2cc(O)cc(-c3ncc4c(N5CC6CCC(C5)N6)nc(OCC56CCCN5CC(F)C6)nc4c3F)c12
7.93: pIC50 (second compound 0.0316 µM)
7.44: pIC50 (second compound 0.316 µM)
7.49: pIC50 (second compound 10 µM)
7.43: pIC50 (second compound 1 µM)
7.48: pIC50 (second compound 3.16 µM)
inactive: viability, T/C (second compound 0.0316 µM, first compound 0.000949 µM) 108% | viability, T/C (second compound 0.0316 µM, first compound 0.003 µM) 63.5% | viability, T/C (second compound 0.0316 µM, first compound 0.00949 µM) 56.8% | viability, T/C (second compound 0.0316 µM, first compound 0.03 µM) 45.1% | viability, T/C (second compound 0.0316 µM, first compound 0.0949 µM) 41.5% | viability, T/C (second compound 0.0316 µM, first compound 0.3 µM) 34.2% | viability, T/C (second compound 0.1 µM, first compound 0.000949 µM) 85.7% | viability, T/C (second compound 0.1 µM, first compound 0.003 µM) 69.6% | viability, T/C (second compound 0.1 µM, first compound 0.00949 µM) 50.6% | viability, T/C (second compound 0.1 µM, first compound 0.03 µM) 50.2% | viability, T/C (second compound 0.1 µM, first compound 0.0949 µM) 44.5% | viability, T/C (second compound 0.1 µM, first compound 0.3 µM) 33.2% | viability, T/C (second compound 0.316 µM, first compound 0.000949 µM) 81.2% | viability, T/C (second compound 0.316 µM, first compound 0.003 µM) 74.3% | viability, T/C (second compound 0.316 µM, first compound 0.00949 µM) 54% | viability, T/C (second compound 0.316 µM, first compound 0.03 µM) 54% | viability, T/C (second compound 0.316 µM, first compound 0.0949 µM) 42.6% | viability, T/C (second compound 0.316 µM, first compound 0.3 µM) 35.2% | viability, T/C (second compound 1 µM, first compound 0.000949 µM) 91.7% | viability, T/C (second compound 1 µM, first compound 0.003 µM) 74% | viability, T/C (second compound 1 µM, first compound 0.00949 µM) 63% | viability, T/C (second compound 1 µM, first compound 0.03 µM) 52.2% | viability, T/C (second compound 1 µM, first compound 0.0949 µM) 43.3% | viability, T/C (second compound 1 µM, first compound 0.3 µM) 32.2% | viability, T/C (second compound 3.16 µM, first compound 0.000949 µM) 99% | viability, T/C (second compound 3.16 µM, first compound 0.003 µM) 74.5% | viability, T/C (second compound 3.16 µM, first compound 0.00949 µM) 60% | viability, T/C (second compound 3.16 µM, first compound 0.03 µM) 54.2% | viability, T/C (second compound 3.16 µM, first compound 0.0949 µM) 44.9% | viability, T/C (second compound 3.16 µM, first compound 0.3 µM) 33.5% | viability, T/C (second compound 10 µM, first compound 0.000949 µM) 101% | viability, T/C (second compound 10 µM, first compound 0.003 µM) 71% | viability, T/C (second compound 10 µM, first compound 0.00949 µM) 66.8% | viability, T/C (second compound 10 µM, first compound 0.03 µM) 47.3% | viability, T/C (second compound 10 µM, first compound 0.0949 µM) 47.9% | viability, T/C (second compound 10 µM, first compound 0.3 µM) 33.9%
7.68: pIC50 (second compound 0.1 µM)

— PubChem BioAssay AID2060895 (Molecular Pharmacology Branch, DTP, NCI, 2025)
